Reference: ChEMBL document CHEMBL5380777, “Efficacy, Mechanism, and Structure-Activity Relationship of 6-Methoxy Benzofuran Derivatives as a Useful Tool for Senile Osteoporosis” (J Med Chem, 2023)
The source made the active and inactive calls. The calls are words filed in the database; no cut-off is given here.

Assays:
[1] = species on record: Danio rerio; assay: Anti osteoporosis activity in prednisone induced wildtype 3 days post-fertilization AB zebrafish osteoporosis model assessed as increase in bone fluorescence intensity (RVB = 13620 +/- 1692); format: functional
[2] = system: MC3T3-E1; assay: Induction of ALP activity in mouse MC3T3-E1 cells in osteogenic differentiation culture at 1 uM measured on day 7; format: functional, cell-based; details: time 7.0 day
[3] = target: T1, hERG (KCNH2) (Homo sapiens, UniProt Q12809); assay: Inhibition of human ERG stably expressed in CHO cells at 0.3 uM by whole-cell patch clamp method relative to control; format: toxicity, cell-based; details: CHO cells stably expressing human ERG
[4] = species on record: Danio rerio; assay: Anti osteoporosis activity in prednisone induced wildtype 3 days post-fertilization AB zebrafish osteoporosis model assessed as increase in bone fluorescence intensity; format: functional, organism-based; details: dose 0.078-1.25 µM
[5] = species on record: Danio rerio; assay: Anti osteoporosis activity in prednisone induced wildtype 3 days post-fertilization AB zebrafish osteoporosis model assessed as increase in bone mass; format: functional, organism-based; details: dose 0.078-1.25 µM
[6] = species on record: Danio rerio; assay: Anti osteoporosis activity in prednisone induced wildtype 3 days post-fertilization AB zebrafish osteoporosis model assessed as increase in bone mass at 1.25 uM relative to normal control group; format: functional, organism-based
[7] = species on record: Danio rerio; assay: Anti osteoporosis activity in prednisone induced wildtype 3 days post-fertilization AB zebrafish osteoporosis model assessed as increase in osteoblast by measuring fluorescence intensity; format: functional, organism-based; details: dose 0.078-1.25 µM
[8] = target: T2, Cytochrome P450 1A2 (Homo sapiens, UniProt P05177); assay: Inhibition of CYP1A2 (unknown origin) using phenacetin as substrate (reference value: 0.0292 uM); format: ADME
T2 sequence (P05177 whole entry): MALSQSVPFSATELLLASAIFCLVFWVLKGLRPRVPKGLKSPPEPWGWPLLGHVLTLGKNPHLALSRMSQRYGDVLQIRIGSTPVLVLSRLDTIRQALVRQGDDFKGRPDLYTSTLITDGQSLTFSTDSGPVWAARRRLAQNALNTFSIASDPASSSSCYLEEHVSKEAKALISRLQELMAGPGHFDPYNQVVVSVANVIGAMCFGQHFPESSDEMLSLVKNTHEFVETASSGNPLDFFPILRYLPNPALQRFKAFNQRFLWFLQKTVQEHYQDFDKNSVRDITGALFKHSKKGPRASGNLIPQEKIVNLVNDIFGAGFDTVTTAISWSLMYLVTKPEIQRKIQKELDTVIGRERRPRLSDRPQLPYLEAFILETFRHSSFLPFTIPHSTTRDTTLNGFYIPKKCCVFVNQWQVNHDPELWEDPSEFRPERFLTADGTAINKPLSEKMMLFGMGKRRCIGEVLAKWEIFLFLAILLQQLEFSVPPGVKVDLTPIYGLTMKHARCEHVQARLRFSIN

[9] = target: Cytochrome P450 2C19 (Homo sapiens, UniProt P33261); assay: Inhibition of CYP2C19 (unknown origin) using mephenytoin as substrate (reference value: 2.77 uM); format: ADME
[10] = target: Cytochrome P450 2C9 (Homo sapiens, UniProt P11712); assay: Inhibition of CYP2C9 (unknown origin) using tolbutamide as substrate (reference value: 1.9 uM); format: ADME
[11] = target: Cytochrome P450 2D6 (Homo sapiens, UniProt P10635); assay: Inhibition of CYP2D6 (unknown origin) using dextromethorphan as substrate (reference value: 0.0445 uM); format: ADME
[12] = target: T3, Cytochrome P450 3A4 (Homo sapiens, UniProt P08684); assay: Inhibition of CYP3A4 (unknown origin) using midazolam as substrate (reference value: 0.0413 uM); format: ADME
[13] = target: T3, Cytochrome P450 3A4; assay: Inhibition of CYP3A4 (unknown origin) using testosterone as substrate (reference value: 0.0227 uM); format: ADME
[14] = Permeability from apical to basolateral side in human Caco-2 cells assessed as recovery incubated upto 95 mins by LC-MS/MS analysis relative control; format: ADME, cell-based; details: read-out: Drug recovery
[15] = Apparent permeability from apical to basolateral side in human Caco-2 cells incubated upto 95 mins by LC-MS/MS analysis; format: ADME, cell-based; details: read-out: permeability
[16] = Efflux ratio of apparent permeability from basolateral side to apical side over apical side to basolateral side in human Caco-2 cells; format: ADME, cell-based
[17] = Permeability from basolateral to apical side in human Caco-2 cells assessed as recovery incubated upto 95 mins by LC-MS/MS analysis relative control; format: ADME, cell-based; details: read-out: Drug recovery
[18] = Apparent permeability from basolateral to apical side in human Caco-2 cells incubated upto 95 mins by LC-MS/MS analysis; format: ADME, cell-based; details: read-out: permeability
[19] = target: T1, hERG (KCNH2); assay: Inhibition of human ERG stably expressed in CHO cells at 0.1 uM by whole-cell patch clamp method relative to control; format: toxicity, cell-based; details: CHO cells stably expressing human ERG
[20] = target: T1, hERG (KCNH2); assay: Inhibition of human ERG stably expressed in CHO cells at 1 uM by whole-cell patch clamp method relative to control; format: toxicity, cell-based; details: CHO cells stably expressing human ERG
[21] = target: T1, hERG (KCNH2); assay: Inhibition of human ERG stably expressed in CHO cells at 3 uM by whole-cell patch clamp method relative to control; format: toxicity, cell-based; details: CHO cells stably expressing human ERG
[22] = target: T1, hERG (KCNH2); assay: Inhibition of human ERG stably expressed in CHO cells at 10 uM by whole-cell patch clamp method relative to control; format: toxicity, cell-based; details: CHO cells stably expressing human ERG
[23] = Cmax in Sprague-Dawley rat by measuring metabolite 6-methoxybenzofuran-2-carboxylic acid at 2 mg/kg, iv; format: ADME, organism-based; parameters: dose 2 mg/kg, route iv; details: in vivo
[24] = AUC (0 to t) in Sprague-Dawley rat by measuring metabolite 6-methoxybenzofuran-2-carboxylic acid at 2 mg/kg, iv; format: ADME, organism-based; parameters: dose 2 mg/kg, route iv; details: in vivo
[25] = AUC (0 to infinity) in Sprague-Dawley rat by measuring metabolite 6-methoxybenzofuran-2-carboxylic acid at 2 mg/kg, iv; format: ADME, organism-based; parameters: dose 2 mg/kg, route iv; details: in vivo
[26] = MRT (0 to infinity) in Sprague-Dawley rat by measuring metabolite 6-methoxybenzofuran-2-carboxylic acid at 2 mg/kg, iv; format: ADME, organism-based; details: in vivo
[27] = Half life in Sprague-Dawley rat by measuring metabolite 6-methoxybenzofuran-2-carboxylic acid at 2 mg/kg, iv; format: ADME, organism-based; details: in vivo
[28] = Volume of distribution at steady state in Sprague-Dawley rat by measuring metabolite 6-methoxybenzofuran-2-carboxylic acid at 2 mg/kg, iv; format: ADME, organism-based; details: in vivo
[29] = Cmax in Sprague-Dawley rat by measuring metabolite 6-methoxybenzofuran-2-carboxylic acid at 10 mg/kg, po; format: ADME, organism-based; parameters: dose 10 mg/kg, route po; details: in vivo
[30] = AUC (0 to t) in Sprague-Dawley rat by measuring metabolite 6-methoxybenzofuran-2-carboxylic acid at 10 mg/kg, po; format: ADME, organism-based; parameters: dose 10 mg/kg, route po; details: in vivo
[31] = AUC (0 to infinity) in Sprague-Dawley rat by measuring metabolite 6-methoxybenzofuran-2-carboxylic acid at 10 mg/kg, po; format: ADME, organism-based; parameters: dose 10 mg/kg, route po; details: in vivo
[32] = MRT (0 to infinity) in Sprague-Dawley rat by measuring metabolite 6-methoxybenzofuran-2-carboxylic acid at 10 mg/kg, po; format: ADME, organism-based; details: in vivo
[33] = Half life in Sprague-Dawley rat by measuring metabolite 6-methoxybenzofuran-2-carboxylic acid at 10 mg/kg, po; format: ADME, organism-based; details: in vivo
[34] = Tmax in Sprague-Dawley rat by measuring metabolite 6-methoxybenzofuran-2-carboxylic acid at 10 mg/kg, po; format: ADME, organism-based; details: in vivo
[35] = Oral bioavailability in Sprague-Dawley rat by measuring metabolite 6-methoxybenzofuran-2-carboxylic acid at 10 mg/kg; format: ADME, organism-based; details: in vivo
[36] = system: MC3T3-E1; assay: Cytotoxicity against mouse MC3T3-E1 cells; format: toxicity, cell-based

T1 sequence (Q12809 whole entry): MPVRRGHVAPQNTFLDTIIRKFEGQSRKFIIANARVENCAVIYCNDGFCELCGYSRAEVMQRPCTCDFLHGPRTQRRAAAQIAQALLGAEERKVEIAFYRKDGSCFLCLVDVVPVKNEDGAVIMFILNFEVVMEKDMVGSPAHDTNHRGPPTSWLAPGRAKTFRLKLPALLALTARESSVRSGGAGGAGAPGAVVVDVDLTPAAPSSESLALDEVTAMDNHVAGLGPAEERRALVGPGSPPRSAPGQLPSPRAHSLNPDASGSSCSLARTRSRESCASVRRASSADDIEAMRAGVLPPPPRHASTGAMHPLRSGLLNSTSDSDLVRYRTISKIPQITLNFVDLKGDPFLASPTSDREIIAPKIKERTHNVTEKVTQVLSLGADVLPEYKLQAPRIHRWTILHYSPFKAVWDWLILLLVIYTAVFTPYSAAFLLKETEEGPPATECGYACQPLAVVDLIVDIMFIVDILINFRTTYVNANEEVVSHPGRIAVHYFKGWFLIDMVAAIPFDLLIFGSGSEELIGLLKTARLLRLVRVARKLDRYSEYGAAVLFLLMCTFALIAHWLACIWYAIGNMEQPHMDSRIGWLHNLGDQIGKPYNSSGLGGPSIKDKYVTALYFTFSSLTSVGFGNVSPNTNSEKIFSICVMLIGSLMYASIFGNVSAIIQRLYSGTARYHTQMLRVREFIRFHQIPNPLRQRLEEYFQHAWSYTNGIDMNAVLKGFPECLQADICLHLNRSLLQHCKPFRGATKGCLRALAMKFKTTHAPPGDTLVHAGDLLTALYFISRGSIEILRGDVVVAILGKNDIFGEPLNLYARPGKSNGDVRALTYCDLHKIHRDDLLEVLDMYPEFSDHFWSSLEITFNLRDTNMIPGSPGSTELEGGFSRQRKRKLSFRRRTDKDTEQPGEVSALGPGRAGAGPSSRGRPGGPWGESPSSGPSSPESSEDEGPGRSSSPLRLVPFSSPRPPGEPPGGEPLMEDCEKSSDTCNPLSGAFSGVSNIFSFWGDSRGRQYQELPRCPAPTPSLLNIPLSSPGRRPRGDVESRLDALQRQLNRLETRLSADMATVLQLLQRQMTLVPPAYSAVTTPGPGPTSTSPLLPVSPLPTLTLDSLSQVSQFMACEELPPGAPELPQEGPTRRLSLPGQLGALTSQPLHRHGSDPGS
T3 sequence (P08684 whole entry): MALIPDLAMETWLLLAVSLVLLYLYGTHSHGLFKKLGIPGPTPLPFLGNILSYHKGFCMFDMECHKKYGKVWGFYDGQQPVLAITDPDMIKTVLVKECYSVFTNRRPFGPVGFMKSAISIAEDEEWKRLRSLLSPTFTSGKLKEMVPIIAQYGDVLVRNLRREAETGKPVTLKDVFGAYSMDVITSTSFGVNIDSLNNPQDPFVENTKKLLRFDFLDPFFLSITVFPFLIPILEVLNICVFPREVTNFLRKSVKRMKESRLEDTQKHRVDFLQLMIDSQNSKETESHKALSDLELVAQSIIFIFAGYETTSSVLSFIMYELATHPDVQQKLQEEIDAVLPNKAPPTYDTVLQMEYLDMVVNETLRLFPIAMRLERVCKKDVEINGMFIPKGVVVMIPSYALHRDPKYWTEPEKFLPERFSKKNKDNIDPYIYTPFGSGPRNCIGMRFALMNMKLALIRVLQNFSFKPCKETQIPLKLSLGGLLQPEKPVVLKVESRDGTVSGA
Sequence of Cytochrome P450 2D6 (P10635 whole entry): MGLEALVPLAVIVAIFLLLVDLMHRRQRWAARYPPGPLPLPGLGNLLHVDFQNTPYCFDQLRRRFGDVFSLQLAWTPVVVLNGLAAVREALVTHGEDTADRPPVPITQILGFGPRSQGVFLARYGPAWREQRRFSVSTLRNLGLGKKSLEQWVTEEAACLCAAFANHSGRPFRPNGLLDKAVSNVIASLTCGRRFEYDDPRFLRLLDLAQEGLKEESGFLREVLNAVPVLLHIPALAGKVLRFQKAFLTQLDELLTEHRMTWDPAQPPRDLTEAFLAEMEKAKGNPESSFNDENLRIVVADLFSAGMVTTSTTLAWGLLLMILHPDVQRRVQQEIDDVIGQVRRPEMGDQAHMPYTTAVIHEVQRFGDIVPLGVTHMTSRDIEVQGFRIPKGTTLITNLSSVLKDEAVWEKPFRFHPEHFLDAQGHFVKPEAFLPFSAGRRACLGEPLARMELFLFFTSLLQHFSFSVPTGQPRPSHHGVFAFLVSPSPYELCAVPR
Sequence of Cytochrome P450 2C9 (P11712 whole entry): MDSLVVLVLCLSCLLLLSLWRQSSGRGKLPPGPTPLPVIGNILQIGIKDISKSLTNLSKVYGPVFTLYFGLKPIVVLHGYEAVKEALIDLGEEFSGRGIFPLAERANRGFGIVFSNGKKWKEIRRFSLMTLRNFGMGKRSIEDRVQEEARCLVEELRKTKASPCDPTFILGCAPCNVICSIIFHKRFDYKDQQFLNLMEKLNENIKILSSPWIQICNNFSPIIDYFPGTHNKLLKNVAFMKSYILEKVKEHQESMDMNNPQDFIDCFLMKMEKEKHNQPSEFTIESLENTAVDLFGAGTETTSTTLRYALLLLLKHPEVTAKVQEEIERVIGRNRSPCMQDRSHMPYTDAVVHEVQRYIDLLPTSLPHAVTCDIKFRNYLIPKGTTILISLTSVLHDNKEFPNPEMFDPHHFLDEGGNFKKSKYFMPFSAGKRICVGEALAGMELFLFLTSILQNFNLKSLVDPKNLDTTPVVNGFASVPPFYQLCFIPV
Sequence of Cytochrome P450 2C19 (P33261 whole entry): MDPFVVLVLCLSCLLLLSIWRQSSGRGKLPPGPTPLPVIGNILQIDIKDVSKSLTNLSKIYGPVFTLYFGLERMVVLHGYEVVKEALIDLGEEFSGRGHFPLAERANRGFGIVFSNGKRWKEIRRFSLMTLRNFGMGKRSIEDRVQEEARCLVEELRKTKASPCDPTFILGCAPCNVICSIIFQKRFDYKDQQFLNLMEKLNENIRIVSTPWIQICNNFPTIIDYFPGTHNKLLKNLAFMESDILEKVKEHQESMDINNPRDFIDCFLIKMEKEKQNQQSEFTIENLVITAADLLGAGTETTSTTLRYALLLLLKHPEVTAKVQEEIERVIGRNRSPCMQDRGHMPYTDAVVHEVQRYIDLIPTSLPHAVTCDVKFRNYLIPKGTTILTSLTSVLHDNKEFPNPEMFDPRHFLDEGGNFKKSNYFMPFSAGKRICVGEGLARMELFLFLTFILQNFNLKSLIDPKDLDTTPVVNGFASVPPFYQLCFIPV

COc1ccc2cc(C(=O)N[C@@H](C(=O)O)C(C)C)oc2c1
Flu intensity [1]: 30880 | Activity [2]: Active

COc1ccc2cc(C(=O)N[C@H](Cc3ccccc3)C(=O)O)oc2c1
Flu intensity [1]: 27422

COc1ccc2cc(C(=O)N3CCC(O)CC3)oc2c1
Flu intensity [1]: 20648

COc1ccc2cc(C(=O)OCCN3CCN(C)CC3)oc2c1
Flu intensity [1]: 23765

COc1ccc2cc(C(=O)NCC(=O)OCCN(C)C)oc2c1
Flu intensity [1]: 26758

COc1ccc2cc(C(=O)NCCN3CCOCC3)oc2c1
Flu intensity [1]: 26682

COc1ccc2cc(C(=O)N3CCC(C(F)(F)F)CC3)oc2c1
Flu intensity [1]: 16975

COc1ccc2cc(C(=O)N[C@H](CC(C)C)C(=O)O)oc2c1
Flu intensity [1]: 20236

COc1ccc2cc(C(=O)NCCN3CCCC3)oc2c1
Flu intensity [1]: 20961

COc1ccc2cc(C(=O)N[C@H](C)C(=O)O)oc2c1
Flu intensity [1]: 17768

COc1cc(N)c(Cl)cc1C(=O)NC1CCN(CCCOc2ccc(F)cc2)CC1OC (stereo not drawn) [CISAPRIDE]
inhibition at 0.3 µM [3]: 98.2%

CC(O)(P(=O)([O-])O)P(=O)([O-])O.[Na+].[Na+] [ETIDRONATE DISODIUM]
Flu intensity [1]: 23897

COc1ccc2cc(C(=O)NCCN3CCCCC3)oc2c1
Flu intensity [1]: 23225

COc1ccc2cc(C(=O)NCC(=O)NCCN(C)C)oc2c1
Flu intensity [1]: 23919

COc1ccc2cc(C(=O)OCCN3CCOCC3)oc2c1
Flu intensity [1]: 33746 | Activity [2]: Active | Activity [4]: Dose-Dependent Effect | Activity [5]: Dose-Dependent Effect | Activity [6]: Active | Activity [7]: Dose-Dependent Effect | IC50 [8]: 17 µM | IC50 [9]: > 25 µM | IC50 [10]: > 25 µM | IC50 [11]: > 25 µM | IC50 [12]: > 25 µM | IC50 [13]: > 25 µM | recovery at 1.583 h [14]: 22.7% | Papp A→B at 1.583 h [15]: 3.35 ×10⁻⁶ cm/s | efflux ratio [16]: 1.65 | recovery at 1.583 h [17]: 74.3% | Papp B→A at 1.583 h [18]: 5.53 ×10⁻⁶ cm/s | inhibition at 0.1 µM [19]: 4.69% | inhibition at 0.3 µM [3]: 2.36% | inhibition at 1 µM [20]: 6.15% | inhibition at 3 µM [21]: 9.81% | inhibition at 10 µM [22]: 20.6% | Cmax [23]: 3943 ng/mL | AUC [24]: 4557 ng·h/mL | AUC [25]: 4635 ng·h/mL | MRT [26]: 1.25 h | t1/2 [27]: 2.15 h | Vdss [28]: 0.545 L/kg | Cmax [29]: 10380 ng/mL | AUCt [30]: 25724 ng·h/mL | AUCt [31]: 25873 ng·h/mL | MRT [32]: 2.26 h | t1/2 [33]: 3.07 h | Tmax [34]: 0.25 h | F [35]: 113%

COc1ccc2cc(C(=O)NCC(=O)NCCN3CCCCC3)oc2c1
Flu intensity [1]: 31141 | Activity [2]: Active

COc1ccc2cc(C(=O)OCCN3CCCC3)oc2c1
Flu intensity [1]: 24697

CCN(CC)CCCNC(=O)c1cc2ccc(OC)cc2o1
Flu intensity [1]: 31394 | Activity [2]: Active

COc1ccc2cc(C(=O)N3CCN(C)CC3)oc2c1
Flu intensity [1]: 23902

CCN(CC)CCCCNC(=O)c1cc2ccc(OC)cc2o1
Flu intensity [1]: 21289

COc1ccc2cc(C(=O)N3CCC(c4ccncc4)CC3)oc2c1
Flu intensity [1]: 30379 | Activity [36]: Toxic

COc1ccc2cc(C(=O)NCCCN(C)C)oc2c1
Flu intensity [1]: 18114

COc1ccc2cc(C(=O)NCC(=O)NCCN3CCCC3)oc2c1
Flu intensity [1]: 21953

COc1ccc2cc(C(=O)N3CCC(c4ccc(F)cc4)CC3)oc2c1
Flu intensity [1]: 13963

COc1ccc2cc(C(=O)NCCCCN(C)C)oc2c1
Flu intensity [1]: 25439

COc1ccc2cc(C(=O)NC3CCC(O)CC3)oc2c1 (stereo not drawn)
Flu intensity [1]: 25882

COc1ccc2cc(C(=O)OCCN3CCCCC3)oc2c1
Flu intensity [1]: 23536

COc1ccc2cc(C(=O)NCC(=O)O)oc2c1
Flu intensity [1]: 22567

COc1ccc2cc(C(=O)NCCN3CCNCC3)oc2c1
Flu intensity [1]: 21709

COc1ccc2cc(C(=O)NCCN3CCN(C)CC3)oc2c1
Flu intensity [1]: 25904
